Read-outs that look alike come from different tables or passages of the source.
How the values were obtained:
AML cell lines = experiment: 6-day growth-death assay (Cell Titer Glo); format: cell-based, human
U2932 = conditions: only at this concentration
Procedure: (§1) FIG. 18: Propidium iodide FACS analysis of cell cycle in human lymphoma cell lines. […] Data represents the average±SEM of biological replicates, n=2.
(§2) By day 7, an increase in the sub-G1 population was apparent at concentrations ≥100 nM.

Toledo = test system: Toledo
Procedure: as §1, §2

OCI-Ly1 = conditions: only at this concentration
Procedure: as §1, §2

[1] = test system: 196 human cancer cell lines; experiment: 6-day growth-death assay (Cell Titer Glo); format: cell-based
PRMT5/MEP50 = PRMT5/MEP50 (Homo sapiens, UniProt O14744); experiment: PRMT family radioactive assay; format: biochemical; conditions: Type II; 60 minute SAM:Enzyme:Compound A preincubation
PRMT6 = PRMT6 (Homo sapiens, UniProt Q96LA8); experiment: biochemical
PRMT9 = PRMT9 (Homo sapiens, UniProt Q6P2P2); experiment: PRMT family radioactive assay; format: biochemical; conditions: Type II; 60 minute SAM:Enzyme:Compound A preincubation
[2] = test system: human renal cell carcinoma xenografts (ACHN); experiment: ACHN xenograft tumor growth; format: in vivo, SCID mice; conditions: for Body weight Difference (vs. vehicle): ACHN (ccRCC)
Colon cancer cell lines = experiment: 6-day growth-death assay (Cell Titer Glo); format: cell-based, human
Melanoma cell lines = experiment: 6-day growth-death assay (Cell Titer Glo); conditions: for IC50: Homo sapiens, read-out: Median gIC50, Melanoma
Procedure: (§3) The growth of all cell lines was evaluated over time across a wide range of seeding densities to identify conditions that permitted proliferation throughout the entire 6-day assay. Cells were plated at the optimal seeding density and after overnight incubation, a 20-point 2-fold titration of compound was added and plates were incubated for 6 days. A replicate plate of cells was harvested at the time of compound addition to quantify the starting number of cells (To). Values obtained after the 6 day treatment were expressed as a function of the To value and plotted against compound concentration. The To value was normalized to 100% and represents the number of cells at the time of compound addition. The data were fit with a 4 parameter equation to generate a concentration response curve and the growth IC50 (gIC50) was determined. The gIC50 is the midpoint of the ‘growth window’, the difference between the number of cells at the time of compound addition (T0) and the number of cells after 6 days (DMSO control). The growth-death assay can be used to quantify the net population change, clearly defining cell death (cytotoxicity) as fewer cells compared to the number at the time of compound addition (T0).

[3] = test system: Bladder cancer cell lines; experiment: 6-day growth-death assay (Cell Titer Glo); format: cell-based, human; conditions: for IC50: Homo sapiens, read-out: Median gIC50, Bladder
[4] = test system: Prostate cancer cell lines; experiment: 6-day growth-death assay (Cell Titer Glo); format: cell-based, human; conditions: 4 cell lines
SK-MEL-5 = experiment: 6-day growth-death assay (Cell Titer Glo); format: cell-based; conditions: Homo sapiens, SK-MEL-5, 144 h, read-out: gIC50
Procedure: as §3

HL-60 = experiment: 6-day growth-death assay (Cell Titer Glo); format: cell-based; conditions: Homo sapiens, HL-60, 144 h, read-out: gIC50
Procedure: as §3

ACHN = experiment: 6-day growth-death assay (Cell Titer Glo); format: cell-based; conditions: Homo sapiens, 144 h, read-out: gIC50
Procedure: as §3

A375 = experiment: 6-day growth-death assay (Cell Titer Glo); format: cell-based; conditions: Homo sapiens, A-375, 144 h, read-out: gIC50
Procedure: as §3

Lymphoma cell lines = experiment: 6-day growth-death assay (Cell Titer Glo); format: cell-based, human; conditions: for IC50: Homo sapiens, read-out: Median gIC50, Lymphoma
ccRCC cell lines = conditions: only at the highest concentration
Breast cancer cell lines = experiment: 6-day growth-death assay (Cell Titer Glo); conditions: for IC50: Homo sapiens
Procedure: Cell lines representing triple negative breast cancer (TNBC) are shown in orange; other subtypes are in blue.
as §3

[5] = test system: Toledo (human DLBCL) xenograft; experiment: Toledo xenograft tumor growth; conditions: for Body weight Difference (vs. vehicle): Toledo (DLBCL)
NSC-LC cell lines = experiment: 6-day growth-death assay (Cell Titer Glo); format: cell-based, human; conditions: for IC50: Homo sapiens, read-out: Median gIC50, Lung (NSCLC); for Median % Ymin − T0: Lung (NSCLC)
MDA-MB-435S = experiment: 6-day growth-death assay (Cell Titer Glo); format: cell-based, human
Procedure: as §3

PRMT8 = PRMT8 (Homo sapiens, UniProt Q9NR22); experiment: biochemical
[6] = test system: arginine methylation in Toledo DLBCL cells; experiment: Western analysis of arginine methylation marks (ADMA, SDMA, MMA); format: cell-based, human
From the text: (B) Representative western blots of arginine methylation marks. Regions quantified are denoted by black bars on the right of the gel.
(B) Representative western blots of arginine methylation marks. Regions quantified for (A) are denoted by black bars on the side of the gel.
As predicted, ADMA methylation decreased while MMA increased upon compound exposure (FIG. 12). […] Given the detection of numerous substrates with varying kinetics, and variability of ADMA levels among DMSO-treated samples, both the full lane and a prominent 45 kDa band were characterized to assess ADMA. Increases in MMA were apparent by 24 hours and near maximal by 48 hours while decreases in the 45 kDa ADMA band required 72-96 hours to achieve maximal effect. Increases in SDMA were apparent after 48 hours of compound exposure and continued to increase through 120 hours, consistent with the potential switch from conversion of MMA to ADMA by Type I PRMTs to SDMA by Type II PRMTs (FIG. 12).
Cells were then washed, cultured in Compound A-free media, samples were collected daily through 120 hours, and arginine methylation levels were examined by western analysis. […] SDMA appeared to continue to increase even after 6 hours of washout. This is consistent with the continued increase observed through 120 hours without any obvious plateau (FIG. 12) coupled with the durable increase in MMA that has not yet returned to baseline after washout. Durability of each modification generally reflected the kinetics of arginine methylation changes brought about by Compound A, with MMA being the most rapid.

Kidney cancer cell lines = experiment: 6-day growth-death assay (Cell Titer Glo); format: cell-based, human; conditions: 10 cell lines
[7] = Homo sapiens, 144 h, read-out: Median gIC50
[8] = 0.4 μM Compound A for 72 hours then washout

Chain of PRMT8 (Q9NR22 whole entry): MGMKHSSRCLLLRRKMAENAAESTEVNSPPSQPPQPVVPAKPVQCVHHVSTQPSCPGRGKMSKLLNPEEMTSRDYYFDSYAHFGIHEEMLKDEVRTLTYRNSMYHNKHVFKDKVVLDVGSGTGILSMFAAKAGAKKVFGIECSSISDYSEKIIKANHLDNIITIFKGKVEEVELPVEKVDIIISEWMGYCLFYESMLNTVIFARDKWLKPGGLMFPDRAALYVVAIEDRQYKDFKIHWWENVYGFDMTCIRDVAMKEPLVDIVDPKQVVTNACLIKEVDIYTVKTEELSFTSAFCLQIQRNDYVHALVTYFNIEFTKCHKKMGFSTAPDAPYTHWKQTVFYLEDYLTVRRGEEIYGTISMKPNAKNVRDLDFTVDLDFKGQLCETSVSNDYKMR
Chain of PRMT9 (Q6P2P2 whole entry): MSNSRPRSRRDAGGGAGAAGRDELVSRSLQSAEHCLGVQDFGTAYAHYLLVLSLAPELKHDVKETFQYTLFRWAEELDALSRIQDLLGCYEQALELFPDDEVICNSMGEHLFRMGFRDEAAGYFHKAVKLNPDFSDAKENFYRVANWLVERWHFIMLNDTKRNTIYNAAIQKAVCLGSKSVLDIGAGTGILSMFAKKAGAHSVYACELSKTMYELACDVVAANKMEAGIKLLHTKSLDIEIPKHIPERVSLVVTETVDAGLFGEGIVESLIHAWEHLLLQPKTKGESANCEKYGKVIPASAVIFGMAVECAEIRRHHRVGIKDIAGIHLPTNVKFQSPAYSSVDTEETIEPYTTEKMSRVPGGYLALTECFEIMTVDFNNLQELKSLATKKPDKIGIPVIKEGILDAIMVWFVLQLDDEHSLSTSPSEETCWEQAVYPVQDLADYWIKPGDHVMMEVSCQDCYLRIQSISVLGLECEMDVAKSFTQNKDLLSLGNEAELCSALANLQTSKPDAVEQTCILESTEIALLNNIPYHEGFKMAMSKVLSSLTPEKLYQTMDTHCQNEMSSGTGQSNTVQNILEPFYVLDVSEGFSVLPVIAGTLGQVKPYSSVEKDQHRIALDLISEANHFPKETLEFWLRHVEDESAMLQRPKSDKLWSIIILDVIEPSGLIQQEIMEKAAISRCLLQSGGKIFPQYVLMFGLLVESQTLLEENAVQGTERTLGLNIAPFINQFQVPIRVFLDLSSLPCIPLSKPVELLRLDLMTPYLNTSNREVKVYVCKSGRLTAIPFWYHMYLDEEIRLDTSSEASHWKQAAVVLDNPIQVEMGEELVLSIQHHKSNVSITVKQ
Chain of PRMT5/MEP50 (O14744 whole entry): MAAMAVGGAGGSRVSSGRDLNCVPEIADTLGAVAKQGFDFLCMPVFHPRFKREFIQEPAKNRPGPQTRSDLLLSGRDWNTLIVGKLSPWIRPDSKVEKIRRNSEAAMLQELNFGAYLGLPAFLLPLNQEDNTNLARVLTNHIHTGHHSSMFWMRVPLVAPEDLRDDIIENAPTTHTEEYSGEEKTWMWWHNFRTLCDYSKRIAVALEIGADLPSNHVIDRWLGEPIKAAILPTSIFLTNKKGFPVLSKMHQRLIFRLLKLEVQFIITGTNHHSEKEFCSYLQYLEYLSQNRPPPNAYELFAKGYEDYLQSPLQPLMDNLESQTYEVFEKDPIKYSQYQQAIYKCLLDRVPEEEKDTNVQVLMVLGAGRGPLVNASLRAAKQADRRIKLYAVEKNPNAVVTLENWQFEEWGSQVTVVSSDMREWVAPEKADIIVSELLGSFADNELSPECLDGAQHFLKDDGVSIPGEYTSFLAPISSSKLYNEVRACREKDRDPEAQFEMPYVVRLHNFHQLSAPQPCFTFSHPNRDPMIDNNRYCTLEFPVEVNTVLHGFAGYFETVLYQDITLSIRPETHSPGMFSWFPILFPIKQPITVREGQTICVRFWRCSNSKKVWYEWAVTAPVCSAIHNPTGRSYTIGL
Chain of PRMT5/MEP50 (Q9BQA1 whole entry partner): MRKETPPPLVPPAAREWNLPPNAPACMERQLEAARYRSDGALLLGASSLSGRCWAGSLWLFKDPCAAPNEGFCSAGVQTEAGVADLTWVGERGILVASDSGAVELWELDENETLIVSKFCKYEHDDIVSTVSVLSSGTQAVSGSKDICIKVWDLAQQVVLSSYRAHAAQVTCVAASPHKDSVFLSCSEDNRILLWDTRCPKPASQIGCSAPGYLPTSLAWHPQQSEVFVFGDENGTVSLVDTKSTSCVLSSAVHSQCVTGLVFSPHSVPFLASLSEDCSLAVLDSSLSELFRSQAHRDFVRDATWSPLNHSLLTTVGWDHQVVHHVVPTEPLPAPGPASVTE
Chain of PRMT6 (Q96LA8 whole entry): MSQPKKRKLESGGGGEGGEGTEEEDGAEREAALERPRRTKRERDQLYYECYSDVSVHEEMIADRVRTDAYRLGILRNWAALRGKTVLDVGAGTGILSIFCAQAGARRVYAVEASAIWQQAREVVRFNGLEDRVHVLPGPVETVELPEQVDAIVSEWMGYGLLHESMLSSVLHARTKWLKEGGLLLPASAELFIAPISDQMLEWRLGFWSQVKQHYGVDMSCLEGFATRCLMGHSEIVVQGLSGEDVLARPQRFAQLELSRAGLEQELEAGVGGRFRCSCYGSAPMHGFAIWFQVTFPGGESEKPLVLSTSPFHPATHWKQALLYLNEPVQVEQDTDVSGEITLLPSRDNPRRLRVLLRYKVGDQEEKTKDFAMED

## CCOCC1(COCC)CCC(c2n[nH]cc2CN(C)CCNC)CC1 [Compound A]
AML cell lines; 6-day, AML, 10 cell lines
  % Cytotoxic (cell lines with negative Ymin−T0): 50%
  % gIC100 < 2 μM (of cell lines): 0%
  Median gIC100: 16.72 µM
AML cell lines; 6-day, of 10 AML cell lines
  number of cell lines in which cytotoxicity was induced: 5
AML cell lines; [7]
  IC50: 540 nM
U2932
  Compound A concentration at which sub-G1 effect was evident: 10 µM
Toledo; beginning after 3 days of treatment
  Compound A concentrations giving accumulation of cells in sub-G1: ≥ 1000 nM
Toledo; by day 7
  Compound A concentrations giving increase in the sub-G1 population: ≥ 100 nM
OCI-Ly1
  Compound A concentration at which sub-G1 effect was evident: 10 µM
[1]; 6-day, Total, 196 cell lines
  % Cytotoxic (cell lines with negative Ymin−T0): 23%
  % gIC100 < 2 μM (of cell lines): 4%
[1]; [7]
  IC50: 2120 nM
PRMT5/MEP50
  inhibition of activity: failed to inhibit
PRMT6
  IC50: 3 to 5 nM
PRMT9
  inhibition of activity: failed to inhibit
[2]; 150 mg/kg QD oral, Day 59
  Body weight Difference (vs. vehicle): −3%
[2]; 300 mg/kg QD oral, Day 59
  Body weight Difference (vs. vehicle): −4%
[2]; 450 mg/kg QD oral, Day 59
  Body weight Difference (vs. vehicle): −7%
[2]; 600 mg/kg QD oral, arm terminated at day 31
  Body weight Difference (vs. vehicle): −17%
[2]; ACHN, 600 mg/kg daily, dosing group terminated on day 31
  body weight loss: Significant body weight loss
Colon cancer cell lines; 6-day, Colon, 34 cell lines
  % Cytotoxic (cell lines with negative Ymin−T0): 3%
  % gIC100 < 2 μM (of cell lines): 0%
  Median gIC100: 29.33 µM
Colon cancer cell lines; [7]
  IC50: 5510 nM
Melanoma cell lines; 6-day, Melanoma, 7 cell lines
  % Cytotoxic (cell lines with negative Ymin−T0): 0%
  % gIC100 < 2 μM (of cell lines): 0%
  Median gIC100: 29.33 µM
Melanoma cell lines; MTAP High
  IC50: 1900 nM
Melanoma cell lines; MTAP Low
  IC50: 300 nM
Melanoma cell lines; Melanoma, MTAP High
  Median % Ymin − T0: 214%
  Median gIC100: 29.4 µM
Melanoma cell lines; Melanoma, MTAP Low
  Median % Ymin − T0: 53%
[3]; 6-day, Bladder, 18 cell lines
  % Cytotoxic (cell lines with negative Ymin−T0): 0%
  % gIC100 < 2 μM (of cell lines): 0%
[3]; Bladder, MTAP High
  Median % Ymin − T0: 658%
  Median gIC100: 29.3 µM
[3]; Bladder, MTAP Low
  Median % Ymin − T0: 257%
  Median gIC100: 29.3 µM
[3]; MTAP High
  IC50: 7600 nM
[3]; MTAP Low
  IC50: 1600 nM
[4]
  % Cytotoxic (cell lines with negative Ymin−T0): 0%
  % gIC100 < 2 μM (of cell lines): 0%
SK-MEL-5
  IC50: 90 ± 30 nM
HL-60
  IC50: 20 ± 10 nM
ACHN
  IC50: 100 ± 50 nM
A375
  IC50: 50 ± 30 nM
Lymphoma cell lines; 6-day, Lymphoma, 59 cell lines
  % Cytotoxic (cell lines with negative Ymin−T0): 54%
  % gIC100 < 2 μM (of cell lines): 14%
Lymphoma cell lines; MTAP High
  IC50: 600 nM
Lymphoma cell lines; MTAP Low
  IC50: 100 nM
Lymphoma cell lines; Lymphoma, MTAP High
  Median % Ymin − T0: 17%
  Median gIC100: 24.4 µM
Lymphoma cell lines; Lymphoma, MTAP Low
  Median % Ymin − T0: −89%
  Median gIC100: 5.3 µM
ccRCC cell lines
  concentration at which caspase cleavage occurred: 30 µM
Breast cancer cell lines; 6-day, Breast, 29 cell lines
  % Cytotoxic (cell lines with negative Ymin−T0): 10%
  % gIC100 < 2 μM (of cell lines): 0%
  Median gIC100: 29.36 µM
Breast cancer cell lines; Breast, MTAP High
  Median % Ymin − T0: 174%
  Median gIC100: 29.4 µM
Breast cancer cell lines; Breast, MTAP Low
  Median % Ymin − T0: 188%
Breast cancer cell lines; 144 h, read-out: median gIC50, 6-day, TNBC cell lines
  IC50: 3600 nM
Breast cancer cell lines; 144 h, read-out: median gIC50, 6-day, non-TNBC cell lines
  IC50: 6800 nM
Breast cancer cell lines; read-out: Median gIC50, Breast, MTAP High
  IC50: 4900 nM
Breast cancer cell lines; read-out: Median gIC50, Breast, MTAP Low
  IC50: 10200 nM
[5]; second study, 37.5 mg/kg QD oral, Day 25
  Body weight Difference (vs. vehicle): −5%
[5]; second study, 75 mg/kg BID oral, Day 25
  Body weight Difference (vs. vehicle): −4%
[5]; second study, 75 mg/kg QD oral, Day 25
  Body weight Difference (vs. vehicle): −5%
[5]; second study, 150 mg/kg QD oral, Day 25
  Body weight Difference (vs. vehicle): −7%
[5]; 150 mg/kg QD oral, Day 28
  Body weight Difference (vs. vehicle): −4%
[5]; 300 mg/kg QD oral, Day 28
  Body weight Difference (vs. vehicle): −3%
[5]; 450 mg/kg QD oral, Day 28
  Body weight Difference (vs. vehicle): −8%
[5]; 600 mg/kg QD oral, Day 28
  Body weight Difference (vs. vehicle): −7%
[5]; Toledo, any dose group
  body weight loss: No significant body weight loss
NSC-LC cell lines; 6-day, NSC-LC, 25 cell lines
  % Cytotoxic (cell lines with negative Ymin−T0): 16%
  % gIC100 < 2 μM (of cell lines): 0%
  Median gIC100: 29.33 µM
NSC-LC cell lines; MTAP High
  IC50: 5000 nM
  Median % Ymin − T0: 141%
NSC-LC cell lines; MTAP Low
  IC50: 3000 nM
  Median % Ymin − T0: 237%
MDA-MB-435S
  gIC100: 29.33 ± 0.00 µM
PRMT8
  IC50: 3 to 5 nM
[6]; 0.4 μM Compound A
  time after which increases in SDMA were apparent: 48 h
  time at which increases in MMA were apparent: ≤ 24 h
  time at which increases in MMA were near maximal: ≤ 48 h
  time required for maximal decrease in the 45 kDa ADMA band: 72 to 96 h
[6]; [8]
  time for ADMA to return to baseline after washout: ≤ 24 h
  time for MMA to return to baseline after washout: ≤ 24 h
  time for SDMA to return to baseline after washout: ≤ 96 h
Kidney cancer cell lines
  % Cytotoxic (cell lines with negative Ymin−T0): 0%
  % gIC100 < 2 μM (of cell lines): 0%
  Median gIC100: 29.35 µM

Source: patent publication US20190365710A1, “METHODS OF TREATING CANCER” (GlaxoSmithKline Intellectual Property Development Limited, priority 2016, published 2019)
